Key:
[1] = test system: barnyardgrass; experiment: Test A pre-/postemergence herbicide test; format: in vivo, Echinochloa crus-galli
Summary of the method: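 Greenhouse injury scoring (0–100, complete control = 100) at approximately ten days follows simultaneous pre- and postemergence application. Soil received a directed spray after seeding; seedlings of 2–10 cm at the one- to two-leaf stage were sprayed to runoff.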

[2] = test system: Surinam grass; experiment: Test C pre-/postemergence herbicide test; format: in vivo, Urochloa decumbens; details: for Surinam Grass plant response rating: 500 g ai/ha
Summary of the method: (§1)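 Pre/post spray; non-phytotoxic solvent + surfactant. Post-timing 1–4 leaves, 2–18 cm. Read-out: visual % control vs untreated, day 12–14, greenhouse.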

[3] = test system: large crabgrass; experiment: Test C pre-/postemergence herbicide test; format: in vivo, Digitaria sanguinalis; details: for Crabgrass, Large plant response rating: 500 g ai/ha
Summary of the method: as §1

[4] = test system: eastern black nightshade; experiment: Test C pre-/postemergence herbicide test; format: in vivo, Solanum ptycanthum; details: for Plant response rating (0 = no effect, 100 = complete control), Nightshade: 62 g ai/ha; for Plant response rating (0 = no effect, 100 = complete control), Nightshade / Plant response rating, Nightshade: preemergence
Summary of the method: as §1

[5] = test system: pigweed; experiment: Test C pre-/postemergence herbicide test; format: in vivo, Amaranthus retroflexus; details: for Pigweed plant response rating: 500 g ai/ha
Summary of the method: as §1

[6] = test system: common ragweed; experiment: Test C pre-/postemergence herbicide test; format: in vivo, Ambrosia elatior; parameters: key to Plant response rating, Ragweed: 0 = no effect, 100 = complete control; details: for Ragweed plant response rating: 500 g ai/ha
Summary of the method: as §1

[7] = test system: chickweed; experiment: Test C postemergence herbicide test; format: in vivo, Stellaria media; details: for Chickweed plant response rating: 500 g ai/ha
Summary of the method: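 Scoring by eye, 12–14 days post-treatment, greenhouse-held plants vs. controls; 0 no effect, 100 complete control. Sprayed at 1–4 leaves (2–18 cm); paddy barnyardgrass at 2 leaves, flooded.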

[8] = test system: rice; experiment: Test C flooded paddy test; format: in vivo, Oryza sativa; details: for Plant response rating, Rice: visual rating after 12 to 14 days
Summary of the method: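 Injury scored visually against controls on a 0 (no effect) to 100 (complete control) scale, 12 to 14 days after treatment in greenhouse. Flooded paddy plants treated at 2-leaf stage; postemergence plants at 1- to 4-leaf stage, 2 to 18 cm tall.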

[9] = test system: ducksalad; experiment: Test C flooded paddy test; format: in vivo, Heteranthera limosa; details: for Plant response rating, Ducksalad: visual rating after 12 to 14 days
[10] = test system: rice; experiment: Test B pre-/postemergence herbicide test; format: in vivo, Oryza sativa; details: preemergence, 125 g ai/ha; 0 to 100 scale, 0 is no effect, 100 is complete control
Summary of the method: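 Species tested were Echinochloa crus-galli, Ipomoea coccinea, Xanthium strumarium and Oryza sativa, treated both before emergence and at the 1- to 4-leaf stage; rice and barnyardgrass were also tested under flooding at 2 leaves. Greenhouse incubation lasted 13–15 days before visual 0–100 scoring.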

[11] = Postemergence, 500 g ai/ha, 0 to 100 scale, 0 no effect, 100 complete control
[12] = Postemergence, 2000 g ai/ha, 0 to 100 scale, 0 no effect, 100 complete control
[13] = Preemergence, 500 g ai/ha, visual rating, 0 to 100 scale (0 no effect, 100 complete control)
[14] = Preemergence, 2000 g ai/ha, 0 to 100 scale, 0 no effect, 100 complete control
[15] = 125 g ai/ha, scale 0 (no effect) to 100 (complete control), visual, 12 to 14 days, preemergence
[16] = 250 g ai/ha, scale 0 to 100 (0 no effect, 100 complete control), visual, 12 to 14 days, preemergence
[17] = Postemergence, 250 g ai/ha, scale 0 to 100, 0 no effect, 100 complete control
[18] = Preemergence, scale 0 to 100, 0 no effect, 100 complete control
[19] = postemergence, 62 g ai/ha, scale 0 to 100
[20] = 125 g ai/ha, scale 0 (no effect) to 100 (complete control), visual, 12 to 14 days
[21] = 62 g ai/ha, scale 0 to 100 (0 no effect, 100 complete control)
[22] = 125 g ai/ha, scale of 0 to 100, 0 is no effect, 100 is complete control
[23] = 250 g ai/ha, scale 0 to 100 (0 no effect, 100 complete control)
[24] = 500 g ai/ha, scale 0 to 100 (0 no effect, 100 complete control)
[25] = postemergence, 125 g ai/ha, scale 0 to 100
[26] = 31 g ai/ha, preemergence, scale 0 to 100

## C#CCNC(=O)c1cccc(NC(=O)c2cc(C(C)(C)C)nn2CC)c1 [Compound 47]
[1]; [11]
  Plant response rating, Barnyardgrass: 90
[1]; [12]
  Plant response rating, Barnyardgrass: 100
[1]; [13]
  Barnyardgrass plant response rating: 90
[1]; [14]
  Barnyardgrass plant response rating: 95
[2]; 62 g ai/ha, preemergence
  Plant response rating (0 = no effect, 100 = complete control), Surinam Grass: 0
[2]; [15]
  Plant response rating, Surinam Grass: 10
[2]; [16]
  Plant response rating, Surinam Grass: 60
[2]; Postemergence, scale 0 to 100
  Surinam Grass plant response rating: 70
[2]; [17]
  Plant response rating, Surinam Grass: 60
[2]; [18]
  Surinam Grass plant response rating: 80
[2]; [19]
  Plant response rating, Surinam Grass: 30
[3]; 62 g ai/ha, preemergence
  Plant response rating (0 = no effect, 100 = complete control), Crabgrass, Large: 100
[3]; [15]
  Plant response rating, Crabgrass, Large: 100
[3]; [16]
  Plant response rating, Crabgrass, Large: 100
[3]; Postemergence, scale 0 to 100
  Crabgrass, Large plant response rating: 90
[3]; [18]
  Crabgrass, Large plant response rating: 100
[3]; [19]
  Plant response rating, Crabgrass, Large: 90
[4]
  Plant response rating (0 = no effect, 100 = complete control), Nightshade: 100
[4]; [20]
  Plant response rating, Nightshade: 100
[4]; 250 g ai/ha, scale 0 to 100 (0 no effect, 100 complete control), visual, 12 to 14 days
  Plant response rating, Nightshade: 100
[4]; Preemergence, 500 g ai/ha, scale 0 to 100, 0 no effect, 100 complete control
  Nightshade plant response rating: 100
[5]; 62 g ai/ha, preemergence
  Plant response rating (0 = no effect, 100 = complete control), Pigweed: 100
[5]; [15]
  Plant response rating, Pigweed: 100
[5]; [16]
  Plant response rating, Pigweed: 100
[5]; Postemergence, scale 0 to 100
  Pigweed plant response rating: 100
[5]; [17]
  Plant response rating, Pigweed: 100
[5]; [18]
  Pigweed plant response rating: 100
[5]; [19]
  Plant response rating, Pigweed: 100
[6]; 62 g ai/ha, preemergence
  Plant response rating (0 = no effect, 100 = complete control), Ragweed: 80
[6]; [15]
  Plant response rating, Ragweed: 80
[6]; [16]
  Plant response rating, Ragweed: 100
[6]; Postemergence, scale 0 to 100
  Ragweed plant response rating: 90
[6]; [17]
  Plant response rating, Ragweed: 80
[6]; [18]
  Ragweed plant response rating: 100
[6]; [19]
  Plant response rating, Ragweed: 70
[7]; Postemergence, scale 0 to 100
  Chickweed plant response rating: 100
[7]; Postemergence, 125 g ai/ha, scale 0 to 100, 0 no effect, 100 complete control
  Plant response rating, Chickweed: 90
[7]; [17]
  Plant response rating, Chickweed: 90
[7]; [19]
  Plant response rating, Chickweed: 90
[8]; [21]
  Rice plant response rating: 0
[8]; [22]
  Rice plant response rating: 20
[8]; [23]
  Plant response rating, Rice: 20
[8]; [24]
  Plant response rating, Rice: 50
[9]; [21]
  Ducksalad plant response rating: 0
[9]; [22]
  Ducksalad plant response rating: 70
[9]; [23]
  Plant response rating, Ducksalad: 80
[9]; [24]
  Plant response rating, Ducksalad: 80

## CCCCOC(=O)c1cccc(NC(=O)c2cc(C(C)(C)C)nn2CC)c1 [Compound 86]
[1]; [11]
  Barnyardgrass plant response rating: 20
[1]; [12]
  Plant response rating, Barnyardgrass: 20
[1]; [13]
  Barnyardgrass plant response rating: 0
[1]; [14]
  Barnyardgrass plant response rating: 0
[10]
  Plant response rating, Rice: 0
[2]; Postemergence, scale 0 to 100
  Surinam Grass plant response rating: 85
[2]; [17]
  Plant response rating, Surinam Grass: 70
[2]; [25]
  Plant response rating, Surinam Grass: 60
[2]; [19]
  Plant response rating, Surinam Grass: 10
[3]; Postemergence, scale 0 to 100
  Crabgrass, Large plant response rating: 40
[3]; [17]
  Plant response rating, Crabgrass, Large: 10
[3]; [19]
  Plant response rating, Crabgrass, Large: 10
[5]; Postemergence, scale 0 to 100
  Pigweed plant response rating: 100
[5]; [17]
  Plant response rating, Pigweed: 100
[5]; [25]
  Plant response rating, Pigweed: 100
[5]; [19]
  Plant response rating, Pigweed: 100
[6]; Postemergence, scale 0 to 100
  Ragweed plant response rating: 70
[6]; [17]
  Plant response rating, Ragweed: 70
[6]; [25]
  Plant response rating, Ragweed: 65
[6]; [19]
  Plant response rating, Ragweed: 10
[7]; Postemergence, scale 0 to 100
  Chickweed plant response rating: 100
[7]; [17]
  Plant response rating, Chickweed: 100
[7]; [25]
  Plant response rating, Chickweed: 100
[7]; [19]
  Plant response rating, Chickweed: 100

## C=Cn1nc(C(C)(C)C)cc1C(=O)Nc1cccc(C(C)=NO)c1 [Compound 114]
[1]; [11]
  Barnyardgrass plant response rating: 30
[1]; [12]
  Plant response rating, Barnyardgrass: 40
[1]; [13]
  Barnyardgrass plant response rating: 25
[1]; Preemergence, 2000 g ai/ha, visual rating, 0 to 100 scale (0 no effect, 100 complete control)
  Barnyardgrass plant response rating: 40
[2]; [26]
  Plant response rating, Surinam Grass: 10
[2]; 62 g ai/ha, preemergence
  Plant response rating (0 = no effect, 100 = complete control), Surinam Grass: 10
[2]; [15]
  Plant response rating, Surinam Grass: 10
[2]; [17]
  Plant response rating, Surinam Grass: 20
[2]; [25]
  Plant response rating, Surinam Grass: 10
[2]; [19]
  Plant response rating, Surinam Grass: 10
[3]; [26]
  Plant response rating, Crabgrass, Large: 100
[3]; 62 g ai/ha, preemergence
  Plant response rating (0 = no effect, 100 = complete control), Crabgrass, Large: 100
[3]; [15]
  Plant response rating, Crabgrass, Large: 100
[3]; [16]
  Plant response rating, Crabgrass, Large: 100
[3]; [17]
  Plant response rating, Crabgrass, Large: 100
[3]; [25]
  Plant response rating, Crabgrass, Large: 100
[3]; [19]
  Plant response rating, Crabgrass, Large: 20
[4]; 31 g ai/ha, scale 0 to 100
  Plant response rating, Nightshade: 20
[4]
  Plant response rating (0 = no effect, 100 = complete control), Nightshade: 70
[4]; [20]
  Plant response rating, Nightshade: 90
[5]; [26]
  Plant response rating, Pigweed: 0
[5]; 62 g ai/ha, preemergence
  Plant response rating (0 = no effect, 100 = complete control), Pigweed: 100
[5]; [15]
  Plant response rating, Pigweed: 100
[5]; [17]
  Plant response rating, Pigweed: 100
[5]; [25]
  Plant response rating, Pigweed: 100
[5]; [19]
  Plant response rating, Pigweed: 100
[6]; [26]
  Plant response rating, Ragweed: 10
[6]; 62 g ai/ha, preemergence
  Plant response rating (0 = no effect, 100 = complete control), Ragweed: 10
[6]; [15]
  Plant response rating, Ragweed: 10
[6]; [17]
  Plant response rating, Ragweed: 90
[6]; [25]
  Plant response rating, Ragweed: 80
[6]; [19]
  Plant response rating, Ragweed: 60
[7]; [17]
  Plant response rating, Chickweed: 100
[7]; postemergence, 31 g ai/ha, scale 0 to 100
  Plant response rating, Chickweed: 80
[7]; [19]
  Plant response rating, Chickweed: 100

— patent publication US20060069132A1, “Azolecarboxamide herbicides” (priority 2004, published 2006)
